Test results as given in patent US20240207250A1, “AGENT FOR PROMOTING LIPID REDUCTION” (MITSUBISHI GAS CHEMICAL COMPANY, INC., priority 2021, published 2024).

How the values were obtained:
Type in all cases: in vivo
[1] = tested on: daphnids (Daphnia magna); experiment: Caloric restriction equivalent amount from correlation between amount of feed and fat mass; settings: calculated from fat mass (fluorescence intensity) with feed/fat mass regression line; Comparative Example 1 = 0
Text: Then, the logarithm of the amount of the feed and the fat mass (fluorescence intensity) obtained after the breeding were plotted as illustrated in FIG. 2 (n=5). When an approximate straight line was drawn on the plots, the approximate straight line was represented by the following equation, and the correlation coefficient was R=0.996. [formula] [formula] [formula] This equation of the approximate straight line can be regarded as a relational expression between the logarithm of the amount of the feed, namely, calorie intake, and the fat mass (fluorescence intensity) after the breeding.

[2] = tested on: daphnids (Daphnia magna); experiment: Measurement of fat mass of daphnids by Nile red fluorescence (lipid reduction promotion test); settings: for Body Fat Mass vs Comparative Example 1 (%), Average: Nile red fluorescence intensity, Comparative Example 1 (no IPQ) = 100, 5 daphnids, 4 days after addition to breeding water, H-IPQ 50 μM or 200 μM, Arg-IPQ 80 mg/L, Leu-IPQ 80 mg/L, ECGC 1 mg/L, carnitine 2 mg/L; for body fat mass as compared with the control (Comparative Example 1), in words: daphnids bred 4 days with substance in breeding water
Procedure: In the present examples, […] (scientific name: Daphnia magna) were used in a lipid reduction promotion test. As chlorella (scientific name: Chlorella vulgaris) used as a feed for the […], a product of […] Center LLC was used. Specifically, parent […] bred in a water tank at 22° C. under a day cycle of an 8/16-hour light/dark cycle. The chlorella used as the feed was supplied in an amount of 8×10^7 on Monday, Wednesday, and Friday. Breeding water held in the water tank was exchanged at a frequency of once a week. Under these breeding conditions, child […] born from the parent […] used in the following examples. 10 child […] bred in 500 mL of mineral water (at 22° C.) under a day cycle of an 8/16-hour light/dark cycle. […] 10 child […] bred in 500 mL of mineral water (at 22° C.) under a day cycle of an 8/16-hour light/dark cycle. […] 10 child […] bred in 500 mL of mineral water (at 22° C.) under a day cycle of an 8/16-hour light/dark cycle. […] 10 child […] bred in 500 mL of mineral water (at 22° C.) under a day cycle of an 8/16-hour light/dark cycle. […] 10 child […] bred in 500 mL of mineral water (at 22° C.) under a day cycle of an 8/16-hour light/dark cycle. […] 10 child […] bred in 500 mL of mineral water (at 22° C.) under a day cycle of an 8/16-hour light/dark cycle. […] The fat mass was measured in accordance with Non Patent Literature 4. […] Thereafter, the […] washed with water, and taken out. Water was added thereto in an amount of 300 μL per […], and the resultant was ground by applying ultrasonic waves for 15 minutes. The thus obtained ground liquid was centrifuged to collect a supernatant. The resultant was measured for a fluorescence intensity through 485 nm excitation/535 nm detection using a plate reader. This measurement operation was performed on 5 […].

[3] = tested on: daphnids (Daphnia magna); experiment: Measurement of body length of daphnids; settings: for body length as compared with the control (Comparative Example 1), in words: daphnids bred 4 days with substance in breeding water; for Body Length (mm), Average: daphnids bred 4 days with substance, Arg-IPQ 80 mg/L, Leu-IPQ 80 mg/L, ECGC 1 mg/L, carnitine 2 mg/L, control 2.37 mm
[4] = tested on: daphnids (Daphnia magna); experiment: Evaluation of movement capability of daphnids (video analysis of moving distance); settings: for moving distance for 30 seconds, Daphnid 1: individual Daphnid 1, control 20.01 cm; for moving distance for 30 seconds, Daphnid 2: individual Daphnid 2, control 22.67 cm; for moving distance for 30 seconds, Daphnid 3: individual Daphnid 3, control 18.62 cm; for amount of exercise improved (times vs control): moving distance relative to control daphnids; for moving distance for 30 seconds, Average ± Standard Deviation: three daphnids, control 20.46 ± 2.06 cm
Procedure: The daphnids bred under condition of no IPQ described in Comparative Example 1 (control), and the daphnids bred in the presence of H-IPQ, Arg-IPQ, and Leu-IPQ respectively described in Examples 1 to 3 were used. 20 mL of mineral water was put in each of four 100 mm-glass petri dishes, into each of which one daphnid bred in Comparative Example 1 and Examples 1 to 3 was transferred. These petri dishes were placed to be adjacent to one another, and the movement for 1 minute of the daphnids was recorded. This operation was repeated three times using different individuals. Then, Kinovea video analysis software was used to analyze a moving distance for 30 seconds of each daphnid.
It is noted that the daphnids were in a state of always moving in the test, which is regarded as a state of exercise with an intensity of 3 METs or more in terms of human exercise intensity.

Compound	Caloric Restriction Equivalent Amount (0 meaning no caloric restriction) [1]	Body Fat Mass vs Comparative Example 1 (%), Average [2]	body fat mass as compared with the control (Comparative Example 1), in words [2]	body length as compared with the control (Comparative Example 1), in words [3]	Body Length (mm), Average [3]	moving distance for 30 seconds, Daphnid 1 [4]	moving distance for 30 seconds, Daphnid 2 [4]	moving distance for 30 seconds, Daphnid 3 [4]	amount of exercise improved (times vs control) [4]	moving distance for 30 seconds, Average ± Standard Deviation [4]
CC(C)Cc1nc2c(=O)c3cc(C(=O)O)[nH]c3c3c(C(=O)O)cc(C(=O)O)n1c23 [Example 3, leucine residue IPQ]	62%	69.9%	reduced	grown to be larger	2.52 mm	26.78 cm	21.56 cm	20.53 cm	1.1 times	22.96 ± 3.35 cm
O=C(O[C@@H]1Cc2c(O)cc(O)cc2O[C@@H]1c1cc(O)c(O)c(O)c1)c1cc(O)c(O)c(O)c1 [Comparative Example 2, Epigallocatechin Gallate, reference compound]	−7%	102.0%	neither increased not reduced	–	2.43 mm	–	–	–	–	–
C[N+](C)(C)CC(O)CC(=O)[O-] (stereo not shown) [Comparative Example 3, carnitine, reference compound]	−231%	133.8%	increased	–	2.82 mm	–	–	–	–	–
N=C(N)NCCCc1nc2c(=O)c3cc(C(=O)O)[nH]c3c3c(C(=O)[O-])cc(C(=O)[O-])n1c23.[Na+].[Na+] [Example 2, Arginine Residue IPQ Disodium]	45%	79.7%	reduced	grown to be larger	2.64 mm	25.33 cm	30.35 cm	30.47 cm	1.4 times	28.72 ± 2.93 cm
O=C([O-])c1cc2c(=O)c3ncn4c(C(=O)[O-])cc(C(=O)[O-])c(c2[nH]1)c34.[Na+].[Na+].[Na+] [Example 1, glycine residue IPQ trisodium]	73%	60.3%	reduced	not grown to be very large	–	24.23 cm	21.43 cm	27.85 cm	about 1.2 times	24.50 ± 3.22 cm
